Test results as given in patent publication US7470707B2, “Crystalline monohydrate clopidogrel naphthalenedisulfonate and process of preparation” (Hanmi Pharm. Co., Ltd, priority 2004, dated 2008).
Counter-ions that a name gives are not always drawn. Like-named read-outs stand apart in the source and are kept apart here. Blank lines part the entries; values can stand above or below the compound they belong to.

Tests used:
[1] = 60±2° C., 75±5% relative humidity
Description: (§1) The assay of the acid addition salt of clopidogrel was measured using HPLC condition A, the amount of hydrolyzed impurities of the acid addition salt of clopidogrel was measured using HPLC condition B, the optical purity of the acid addition salt of clopidogrel (i.e., the amount of the levorotatory isomers) was measured using the HPLC condition C, and the water content of the acid addition salt of clopidogrel was measured with a Karl-Fisher titrator.

[2] = Description: Effects on the bleeding time of the conventional clopidogrel hydrogen sulfate obtained in Comparative Example 1 and the inventive clopidogrel 2-naphthalenesulfonate and clopidogrel 1,5-naphthalenedisulfonate monohydrate obtained in Examples 1 and 2, respectively, were tested using rat in accordance with the standard method (see Dejana E & Villa S, Thromb. Haemostas. 48: 108-111, 1982). The bleeding time is an index representing the extent of thrombus formed by platelet aggregation and tests were performed using male and female rats.
Forty 11 to 12-weeks old male and female Sprague-Dawley rats (average weight: 270±25 g) were divided into four groups each consisting of five male rats and five female rats, and the male rats of the first group were each orally administered with 5.0 mg/kg of clopidogrel hydrogen sulfate (3.83 mg/kg as clopidogrel) and the female rats of the first group were each orally administered with 2.5 mg/kg (1.92 mg/kg as clopidogrel). For the second group, the male and female rats were orally each administered with 6.30 mg/kg and 3.15 mg/kg of clopidogrel 2-naphthalenesulfonate, respectively, and for the third group, the male and female rats were each orally administered with 5.65 mg/kg and 2.83 mg/kg of clopidogrel 1,5-naphthalenedisulfonate monohydrate, respectively. The drug was orally administered in the form of 1% DMSO solution in an amount in volume of 10 ml/kg body weight. As a comparison, only 1% DMSO solution was administered to the last group of rats.
After fixing an unanesthetized rat with an experimental holder, the tail of the rat was pierced at a position of 1.5 cm from the end of tail using a need of 26 G×½, 0.45×13 mm at a depth of 1 mm. The time of bleeding to cease was measured with absorbing the bleeding blood on a filter paper every 10 second.

[3] = 60±2° C., 75±5% RH; for Relative amount compared to the initial amount: HPLC condition A; for Amount of hydrolyzed impurities (formula (III)) of an acid addition salt of clopidogrel: HPLC condition B; for Amount of levorotatory isomers (formula (IV)) of an acid addition salt of clopidogrel: HPLC condition C
Description: Condition A: For the measurement of an assay of an acid addition salt of clopidogrel
• Column: Kromasil C18, 5 μm (250 mm×4.6 mm) • Detector: 220 nm • Flow rate: 1.5 ml/minute • Mobile phase: Na2HPO4—NaH2PO4 buffer solution: THF: CH3CN=5:2:3 (v/v) Condition B: For the measurement of an amount of hydrolyzed impurities of an acid addition salt of clopidogrel • Column: Capcellpak C18 MG, 5 μm (250 mm×4.6 mm) • Detector: 210 nm • Flow rate: 1.0 ml/min. • Mobile phase: KH2PO4 buffer solution/CH3CN (70/30): KH2PO4 buffer solution/CH3CN (30/70)=0:100 100:0 (v/v, gradient elution) Condition C: For the measurement of an optical purity of an acid addition salt of clopidogrel • Column: Chiralpak AD, 5 μm (250 mm×4.6 mm) • Detector: 210 nm • Flow rate: 1.0 ml/min. • Mobile phase: n-hexane: isopropanol=90:10 (v/v)
as §1

[4] = Female Sprague-Dawley rats, oral dose corresponding to 1.92 mg/kg of clopidogrel
[5] = Male Sprague-Dawley rats, oral dose corresponding to 3.83 mg/kg of clopidogrel

Water content ([1]; 0 day): 0.1%
Water content ([1]; 7 days): 0.1%
Water content ([1]; 14 days): 0.1%
Water content ([1]; 21 days): 0.1%
Water content ([1]; 28 days): 0.1%
Water content ([1]; 35 days): 0.1%
Relative amount compared to the initial amount ([3]; 0 day): 100%
Amount of hydrolyzed impurities (formula (III)) of an acid addition salt of clopidogrel ([3]; 0 day): 0.0%
Amount of levorotatory isomers (formula (IV)) of an acid addition salt of clopidogrel ([3]; 0 day): 0.10%
Relative amount compared to the initial amount ([3]; 7 days): 99.1%
Amount of levorotatory isomers (formula (IV)) of an acid addition salt of clopidogrel ([3]; 7 days): 0.10%
Relative amount compared to the initial amount ([3]; 14 days): 99.3%
Amount of hydrolyzed impurities (formula (III)) of an acid addition salt of clopidogrel ([3]; 14 days): 0.12%
Amount of levorotatory isomers (formula (IV)) of an acid addition salt of clopidogrel ([3]; 14 days): 0.10%
Relative amount compared to the initial amount ([3]; 21 days): 99.1%
Amount of levorotatory isomers (formula (IV)) of an acid addition salt of clopidogrel ([3]; 21 days): 0.10%
Relative amount compared to the initial amount ([3]; 28 days): 99.0%
Amount of hydrolyzed impurities (formula (III)) of an acid addition salt of clopidogrel ([3]; 28 days): 0.16%
Amount of levorotatory isomers (formula (IV)) of an acid addition salt of clopidogrel ([3]; 28 days): 0.11%
Relative amount compared to the initial amount ([3]; 35 days): 99.2%
Amount of hydrolyzed impurities (formula (III)) of an acid addition salt of clopidogrel ([3]; 35 days): 0.18%
Amount of levorotatory isomers (formula (IV)) of an acid addition salt of clopidogrel ([3]; 35 days): 0.13%
Compound: COC(=O)[C@H](c1ccccc1Cl)N1CCc2sccc2C1 [2-Naphthalenesulfonate, Clopidogrel 2-naphthalenesulfonate]
Bleeding time [2, 4]: 157 ± 10.6 s
Bleeding time [2, 5]: 190 ± 5.0 s

Water content ([1]; 0 day): 0.1%
Water content ([1]; 7 days): 0.1%
Water content ([1]; 14 days): 0.1%
Water content ([1]; 21 days): 0.4%
Water content ([1]; 28 days): 2.0%
Water content ([1]; 35 days): 4.8%
Relative amount compared to the initial amount ([3]; 0 day): 100%
Amount of hydrolyzed impurities (formula (III)) of an acid addition salt of clopidogrel ([3]; 0 day): 0.0%
Amount of levorotatory isomers (formula (IV)) of an acid addition salt of clopidogrel ([3]; 0 day): 0.35%
Relative amount compared to the initial amount ([3]; 7 days): 99.6%
Amount of levorotatory isomers (formula (IV)) of an acid addition salt of clopidogrel ([3]; 7 days): 0.35%
Relative amount compared to the initial amount ([3]; 14 days): 98.7%
Amount of hydrolyzed impurities (formula (III)) of an acid addition salt of clopidogrel ([3]; 14 days): 0.63%
Amount of levorotatory isomers (formula (IV)) of an acid addition salt of clopidogrel ([3]; 14 days): 0.40%
Relative amount compared to the initial amount ([3]; 21 days): 97.7%
Amount of levorotatory isomers (formula (IV)) of an acid addition salt of clopidogrel ([3]; 21 days): 0.49%
Relative amount compared to the initial amount ([3]; 28 days): 94.4%
Amount of hydrolyzed impurities (formula (III)) of an acid addition salt of clopidogrel ([3]; 28 days): 2.0%
Amount of levorotatory isomers (formula (IV)) of an acid addition salt of clopidogrel ([3]; 28 days): 0.67%
Relative amount compared to the initial amount ([3]; 35 days): 87.0%
Amount of hydrolyzed impurities (formula (III)) of an acid addition salt of clopidogrel ([3]; 35 days): 4.8%
Amount of levorotatory isomers (formula (IV)) of an acid addition salt of clopidogrel ([3]; 35 days): 1.08%
Compound: COC(=O)[C@H](c1ccccc1Cl)N1CCc2sccc2C1 [Hydrogen sulfate, Clopidogrel Hydrogen Sulfate, reference compound]
Bleeding time [2, 4]: 127.5 ± 10.6 s
Bleeding time [2, 5]: 135 ± 8.7 s

Water content ([1]; 0 day, Monohydrate): 1.8%
Water content ([1]; 7 days, Monohydrate): 1.8%
Water content ([1]; 14 days, Monohydrate): 1.9%
Water content ([1]; 21 days, Monohydrate): 1.9%
Water content ([1]; 28 days, Monohydrate): 1.8%
Water content ([1]; 35 days, Monohydrate): 1.9%
Relative amount compared to the initial amount ([3]; 0 day): 100%
Amount of hydrolyzed impurities (formula (III)) of an acid addition salt of clopidogrel ([3]; 0 day): 0.0%
Amount of levorotatory isomers (formula (IV)) of an acid addition salt of clopidogrel ([3]; 0 day, Monohydrate): 0.10%
Relative amount compared to the initial amount ([3]; 7 days, Monohydrate): 100%
Amount of levorotatory isomers (formula (IV)) of an acid addition salt of clopidogrel ([3]; 7 days, Monohydrate): 0.10%
Relative amount compared to the initial amount ([3]; 14 days, Monohydrate): 100%
Amount of hydrolyzed impurities (formula (III)) of an acid addition salt of clopidogrel ([3]; 14 days, Monohydrate): 0.02%
Amount of levorotatory isomers (formula (IV)) of an acid addition salt of clopidogrel ([3]; 14 days, Monohydrate): 0.10%
Relative amount compared to the initial amount ([3]; 21 days, Monohydrate): 100%
Amount of levorotatory isomers (formula (IV)) of an acid addition salt of clopidogrel ([3]; 21 days, Monohydrate): 0.09%
Relative amount compared to the initial amount ([3]; 28 days, Monohydrate): 99.9%
Amount of hydrolyzed impurities (formula (III)) of an acid addition salt of clopidogrel ([3]; 28 days, Monohydrate): 0.04%
Amount of levorotatory isomers (formula (IV)) of an acid addition salt of clopidogrel ([3]; 28 days, Monohydrate): 0.11%
Relative amount compared to the initial amount ([3]; 35 days, Monohydrate): 99.9%
Amount of hydrolyzed impurities (formula (III)) of an acid addition salt of clopidogrel ([3]; 35 days, Monohydrate): 0.05%
Amount of levorotatory isomers (formula (IV)) of an acid addition salt of clopidogrel ([3]; 35 days, Monohydrate): 0.10%
Compound: COC(=O)[C@H](c1ccccc1Cl)N1CCc2sccc2C1 [1,5-Naphthalenedisulfonate monohydrate, Clopidogrel 1,5-naphthalenedisulfonate Monohydrate]
Bleeding time ([2]; Female Sprague-Dawley rats, oral dose corresponding to 1.92 mg/kg of clopidogrel, Monohydrate): 152.5 ± 3.5 s
Bleeding time ([2]; Male Sprague-Dawley rats, oral dose corresponding to 3.83 mg/kg of clopidogrel, Monohydrate): 163 ± 5.8 s
